Assay results taken from patent US20170143712A1, “Methods of Treating Cancers, Immune and Autoimmune Diseases, and Inflammatory Diseases Based on BTK Occupancy and BTK Resynthesis Rate” (Acerta Pharma B.V., priority 2014, published 2017).

Tests used:
BTK = BTK (Homo sapiens, UniProt Q06187); test: BTK target occupancy in CD5+/CD19+ tumor cells of relapsed/refractory CLL patients; type: in vivo
Protocol: Peripheral blood samples were obtained over time and BTK target occupancy was evaluated using a BTK active-site specific probe in an ELISA assay.

[1] = system: established type II collagen-induced arthritis (CIA) in DBA/1 mice; test: Mouse established CIA, dosing from arthritis day 8, QD or BID (Example 11); type: in vivo; conditions: for AUC (All Paws) - Corrected for Initial Score / Change in Body Weight (g) Days 1-19 / Histopathology Summed Score Knees / Histopathology Summed Score Paws / Histopathology Summed Score Six-Joints / Paw Score AUC (All Paws): mean(SE)
Excerpt: A study was designed to determine the efficacy of a covalently acting BTK inhibitor, Formula (II) in inhibiting acute inflammation, pannus formation, cartilage destruction, and bone resorption associated with established type II collagen-induced arthritis (CIA) in DBA/1 mice. Immunization with heterologous type II collagen (CII) induces arthritis in mice of the DBA/1 strain, which is genetically susceptible to this disease. To develop an experimental model of autoimmunity more adequate for the study of human rheumatoid arthritis (RA), male DBA/1 mice were injected intradermally (ID) with bovine type II collagen to induce arthritis as reported by Trentham et al (Trentham D E, Townes A S, Kang A H Autoimmunity to type II collagen: an experimental model of arthritis. J. Exper. Med. 1977, 146:857-868) and Bendele A (Bendele A, Animal models of rheumatoid arthritis. J. Musculoskelet. Neuronal Interact. 2001, 1(4):377-85).
Following acclimatization, 6-7 week old male DBA/1 mice (n=10/group for arthritis) were immunized at the base of the tail, with 150 μL of Freund's Complete Adjuvant (Difco, Detroit, Mich.) containing 1 mg/mL bovine type II collagen by intradermal injection. Immunizations were performed day 0 and again on day 21. On study days 25-26, on day 8 following onset of arthritis, the mice were randomized into treatment groups. […] Dosing began on arthritis day 8 by oral gavage. Groups were treated with vehicle (0.4% HPMC, 0.2% Tween 80), Formula (II) at 25 mg/kg QD, Formula (II) at 12.5 mg/kg BID, or the reference compound dexamethasone (Dex) at 0.2 mg/kg QD. These animals were fasted overnight on arthritis day 20 (13 days after enrollment) prior to necropsy on arthritis day 21. Clinical scores were given for each of the paws (right front, left front, right rear, left rear) on arthritis days 1-21.
Efficacy evaluation was based on animal body weights, clinical arthritis scores, arthritis scores expressed as area under the curve (AUC), and histopathology on fore paws, hind paws, and knees. Histopathology results were expressed as 4 paws, knees only, or 6 joints (knees included). Day 19 was used as the endpoint for analysis of body weight change since the male DBA/1 mice were fasted overnight prior to necropsy on day 21.
Necropsies were conducted on fasted mice and terminal serum, fore paws, hind paws, and knees were collected into 10% neutral buffered formalin (NBF) for microscopy. Spleens were harvested and weighed.

BTK, sequence (Q06187 whole entry): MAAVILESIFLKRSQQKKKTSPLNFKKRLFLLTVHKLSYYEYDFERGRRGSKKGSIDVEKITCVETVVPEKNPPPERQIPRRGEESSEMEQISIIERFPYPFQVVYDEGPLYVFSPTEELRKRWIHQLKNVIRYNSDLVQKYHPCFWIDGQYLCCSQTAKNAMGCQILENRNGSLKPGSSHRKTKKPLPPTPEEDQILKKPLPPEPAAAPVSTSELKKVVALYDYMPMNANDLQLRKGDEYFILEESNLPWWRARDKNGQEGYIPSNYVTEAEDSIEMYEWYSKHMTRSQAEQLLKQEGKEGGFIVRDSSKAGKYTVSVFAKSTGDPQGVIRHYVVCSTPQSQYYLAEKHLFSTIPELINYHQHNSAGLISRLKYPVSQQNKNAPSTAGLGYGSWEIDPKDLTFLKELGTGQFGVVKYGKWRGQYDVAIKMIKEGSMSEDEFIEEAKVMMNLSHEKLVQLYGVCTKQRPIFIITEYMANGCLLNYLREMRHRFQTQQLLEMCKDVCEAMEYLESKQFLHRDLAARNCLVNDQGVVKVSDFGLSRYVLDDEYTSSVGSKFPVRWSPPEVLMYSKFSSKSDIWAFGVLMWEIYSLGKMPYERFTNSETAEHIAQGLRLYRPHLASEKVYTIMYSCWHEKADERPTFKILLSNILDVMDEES

Question: How did the “percentage BTK occupancy” value (BTK; 100 mg BID compared with any QD dosing schedule) turn out when `CC#CC(=O)N1CCC[C@H]1c1nc(-c2ccc(C(=O)Nc3ccccn3)cc2)c2c(N)nccn12` [Formula (II), (S)-4-(8-amino-3-(1-(but-2-ynoyl)pyrrolidin-2-yl)imidazo[1,5-a]pyrazin-1-yl)-N-(pyridin-2-yl)benzamide] was run?
Answer: The value was “higher percentage BTK occupancy”.

Question: And the “resynthesis of BTK in CLL tumor cells” value (BTK; 100 mg QD compared with 100 mg BID)?
Answer: Its value is “more rapid than after 100 mg BID dosing”.

Question: What about the “BTK occupancy in peripheral blood compartment” value (BTK; 3-4 hours post dose, all treated subjects) of the same molecule?
Answer: The value was “full BTK occupancy”.

Question: And the “BTK target occupancy in circulating tumor cells throughout the dosing interval” value (BTK; total daily doses above 200 mg, once-daily or twice-daily)?
Answer: The value was over 90%.

Question: And the “Clinical arthritis score AUC (d8-d21), reduction vs vehicle controls” value ([1]; 12.5 mg/kg BID)?
Answer: Its value is 59%.

Question: And the “absolute spleen weights, reduction vs vehicle controls” value ([1]; 12.5 mg/kg BID)?
Answer: Its value is 64%.

Question: And the “knee bone resorption, reduction vs vehicle controls” value ([1]; 12.5 mg/kg BID)?
Answer: Its value is 78%.

Question: And the “knee inflammation, reduction vs vehicle controls” value ([1]; 12.5 mg/kg BID)?
Answer: The value was 49%.

Question: What about the “knee pannus formation, reduction vs vehicle controls” value ([1]; 12.5 mg/kg BID) of the same molecule?
Answer: Its value is 80%.

Question: What about the “six joint histopathology, reduction of summed scores” value ([1]; 12.5 mg/kg BID) of the same molecule?
Answer: Its value is 53%.

Question: And the “summed knee scores, reduction vs vehicle controls” value ([1]; 12.5 mg/kg BID)?
Answer: Its value is 45%.

Question: And the “arthritis scores measured daily vs vehicle controls” value ([1]; 12.5 mg/kg BID, p<0.05 on days 9-21)?
Answer: Its value is “significantly reduced toward normal”.

Question: And the “AUC (All Paws) - Corrected for Initial Score” value ([1]; 12.5 mg/kg PO BID)?
Answer: Its value is “*−23.05(2.58)”.

Question: What about the “Change in Body Weight (g) Days 1-19” value ([1]; 12.5 mg/kg PO BID) of the same molecule?
Answer: The value was “†0.64(0.69) g”.

Question: And the “Histopathology Summed Score Knees” value ([1]; 12.5 mg/kg PO BID)?
Answer: The value was “*6.73(0.60)”.

Question: What about the “Histopathology Summed Score Paws” value ([1]; 12.5 mg/kg PO BID) of the same molecule?
Answer: Its value is “*7.49(1.03)”.

Question: And the “Histopathology Summed Score Six-Joints” value ([1]; 12.5 mg/kg PO BID)?
Answer: Its value is “*7.23(0.77)”.

Question: And the “Paw Score AUC (All Paws)” value ([1]; 12.5 mg/kg PO BID)?
Answer: The value was “*22.45(2.68)”.

Question: And the “AUC (All Paws) - Corrected for Initial Score” value ([1]; 25 mg/kg PO QD)?
Answer: The value was “*−24.48(3.85)”.

Question: What about the “Change in Body Weight (g) Days 1-19” value ([1]; 25 mg/kg PO QD) of the same molecule?
Answer: The value was 2.37(0.28) g.

Question: And the “Histopathology Summed Score Knees” value ([1]; 25 mg/kg PO QD)?
Answer: The value was “*6.00(0.76)”.

Question: And the “Histopathology Summed Score Paws” value ([1]; 25 mg/kg PO QD)?
Answer: The value was “*7.11(0.98)”.

Question: What about the “Histopathology Summed Score Six-Joints” value ([1]; 25 mg/kg PO QD) of the same molecule?
Answer: Its value is “*6.74(0.80)”.

Question: What about the “Paw Score AUC (All Paws)” value ([1]; 25 mg/kg PO QD) of the same molecule?
Answer: Its value is “*23.63(3.37)”.

Question: And the “Clinical arthritis score AUC (d8-d21), reduction vs vehicle controls” value ([1]; 25 mg/kg QD)?
Answer: The value was 56%.

Question: And the “knee bone resorption, reduction vs vehicle controls” value ([1]; 25 mg/kg QD)?
Answer: Its value is 82%.

Question: And the “knee cartilage damage, reduction vs vehicle controls” value ([1]; 25 mg/kg QD)?
Answer: Its value is 28%.

Question: What about the “knee inflammation, reduction vs vehicle controls” value ([1]; 25 mg/kg QD) of the same molecule?
Answer: Its value is 53%.

Question: What about the “knee pannus formation, reduction vs vehicle controls” value ([1]; 25 mg/kg QD) of the same molecule?
Answer: Its value is 82%.

Question: What about the “six joint histopathology, reduction of summed scores” value ([1]; 25 mg/kg QD) of the same molecule?
Answer: Its value is 56%.

Question: And the “summed knee scores, reduction vs vehicle controls” value ([1]; 25 mg/kg QD)?
Answer: The value was 51%.

Question: And the tolerability ([1]; 25 mg/kg QD or 12.5 mg/kg BID, DBA/1 mice)?
Answer: The tolerability was “well tolerated”.

Question: And the “arthritis scores measured daily vs vehicle controls” value ([1]; 25 mg/kg QD, p<0.05 on days 11-21)?
Answer: The value was “significantly reduced toward normal”.
